For this assay, the target named is human PDHK2 (hPDHK2) (Homo sapiens (Human), UniProt Q15119). Description: Inhibitory action of PDHK activity in vitro (kinase reaction, residual PDH activity measured). The class given is biochemical. As for the experimental part: In the case of human PDHK2 (hPDHK2, Genbank Accession No. NM_002611), modified hPDHK2 cDNA wherein FLAG-Tag sequence is added to the N terminal by a polymerase linkage reaction was prepared based on hPDHK2 cDNA clone (pReceiver-M01/PDK2-GeneCopoeia), and cloned into a vector (pET17b-Novagen). The recombinant construct was transformed into Escherichia coli (DH5α-TOYOBO). The recombinant clones were identified, plasmid DNA was isolated and subjected to the DNA sequence analysis. One clone which had the expected nucleic acid sequence was selected for expression work.
During the assay, the hPDHK2 enzyme concentration was set to the minimal concentration at which PDH is inhibited the most.
0.05 U/mL PDH (porcine heart PDH complex, Sigma P7032) and 1.6 μg/mL hPDHK2 were mixed in a buffer (50 mmol/L 3-morpholinopropanesulfonic acid (pH 7.0), 20 mmol/L dipotassium hydrogen phosphate, 60 mmol/L potassium chloride, 2 mmol/L magnesium chloride, 0.4 mmol/L EDTA, and 0.2% Pluronic F-68, 2 mmol/L dithiothreitol), the mixture was incubated at 4° C. overnight to give PDH/hPDHK2 complex. The test compound was diluted with dimethyl sulfoxide (DMSO). PDH/hPDHK2 complex (20 μL), test compound (1.5 μL) and 3.53 μmol/L ATP (diluted with buffer, 8.5 μL) were added to a half area 96 well UV-transparent microplate (Corning 3679), and PDHK reaction was performed at room temperature for 45 min. Instead of the test compound, DMSO (1.5 μL) was added to a control well. DMSO (1.5 μL) was added instead of the test compound to a blank well for the measurement of the maximum rate of PDH reaction, and hPDHK2 was not added. Than, 10 μL of substrates (5 mmol/L sodium pyruvate, 5 mmol/L Coenzyme A, 12 mmol/L NAD, and 5 mmol/L thiamine pyrophosphate, diluted with buffer) was added. The mixture was incubated at room temperature for 90 min, and the residual PDH activity was measured. The absorbance at 340 nm before and after PDH reaction was measured on a microplate reader to detect NADH produced by the PDH reaction. The PDHK inhibitory rate (%) of the test compound was calculated from the formula [{(PDH activity of test compound—PDH activity of control)/PDH activity of blank—PDH activity of control)}×100]. The IC50 value was calculated from the concentrations of the test compound at two points enclosing 50% inhibition of the PDHK activity.

The mark [1] stands for this setting: PDHK inhibitory activity IC50 (μmol/L).
[2] abbreviates: PDHK inhibitory activity, class symbol of IC50.
Where [3] appears, read: read-out: PDHK inhibitory activity IC50.

Like-named read-outs stand apart in the source and are kept apart here.

With `Cc1cc(-c2cnn(CCO)c2)c2c(c1)[C@@](O)(C(F)(F)F)c1ccccc1-2` (stereo in doubt) [compound 529], the IC50 (as a rule, the point on the concentration scale where inhibition reaches its midpoint) was 17 nM under setting [1] and below 100 nM under setting [2].
The like results for `OCCn1cc(-c2cc(F)cc3c2-c2ccccc2[C@]3(O)C(F)(F)F)cn1` (stereo in doubt) [compound 531] were, in that order, 20 nM and below 100 nM.
The like results for `Cc1cc(-c2cnn(CC(N)=O)c2)c2c(c1)[C@@](O)(C(F)(F)F)c1ccccc1-2` (stereo in doubt) [compound 532] were, in that order, 16 nM and below 100 nM.
The like results for `CNC(=O)Cn1cc(-c2cc(C)cc3c2-c2ccccc2[C@]3(O)C(F)(F)F)cn1` (stereo in doubt) [compound 533] were, in that order, 15 nM and below 100 nM.
Turning to `CNC(=O)Cn1cc(-c2cc(F)cc3c2-c2ccccc2[C@]3(O)C(F)(F)F)cn1` (stereo in doubt) [compound 534], the IC50 under setting [1] was 16 nM and the IC50 under setting [2] is below 100 nM.
As for `O=C(O)CCCn1cc(-c2cc(F)cc3c2-c2ccccc2[C@]3(O)C(F)(F)F)cn1` (stereo in doubt) [compound 537], the IC50 is, setting by setting: under setting [1], 35 nM; under setting [2], below 100 nM.
The like results for `O=C(O)CCn1cc(-c2cc(F)cc3c2-c2ccccc2[C@]3(O)C(F)(F)F)cn1` (stereo in doubt) [compound 543] were, in that order, 36 nM and below 100 nM.
For `OC1(Cn2cc(-c3cc(F)cc4c3-c3ccccc3[C@]4(O)C(F)(F)F)cn2)CCCCC1` (stereo in doubt) [compound 544], in that order: 22 nM and below 100 nM.
For `OCC1(n2cc(-c3cc(F)cc4c3-c3ccccc3[C@]4(O)C(F)(F)F)cn2)CCCCC1` (stereo in doubt) [compound 545], in that order: 17 nM and below 100 nM.
Consider `Cc1cc(-c2cnn(C3(CO)CCCC3)c2)c2c(c1)[C@@](O)(C(F)(F)F)c1ccccc1-2` (stereo in doubt) [compound 546], for which the IC50 is, setting by setting: under setting [1], 15 nM; under setting [2], below 100 nM.
Regarding `OCC1(n2cc(-c3cc(F)cc4c3-c3ccccc3[C@]4(O)C(F)(F)F)cn2)CCCC1` (stereo in doubt) [compound 548], the IC50 reads like this: under setting [1], 16 nM; under setting [2], below 100 nM.
For `O=C(O)C1(n2cc(-c3cc(F)cc4c3-c3ccccc3[C@]4(O)C(F)(F)F)cn2)CCCC1` (stereo in doubt) [compound 549], the IC50 runs as follows: under setting [1], 27 nM; under setting [2], below 100 nM.
As to `Cc1cc(-c2cnn(CC(=O)O)c2)c2c(c1)[C@@](O)(C(F)(F)F)c1ccccc1-2` (stereo in doubt) [compound 550], the IC50 is 69 nM under setting [1] and below 100 nM under setting [2].
On to `O=C(O)Cn1cc(-c2cc(F)cc3c2-c2ccccc2[C@]3(O)C(F)(F)F)cn1` (stereo in doubt) [compound 551], for which the IC50 under setting [1] was 109 nM and the 50% inhibitory concentration (IC50) under setting [2] fell in the range of 100 to 1000 nM.
`OC1(C(F)(F)F)c2ccccc2-c2ncccc21` (stereo not shown) [compound 1]: the IC50 by setting is: under setting [2], above 1000 nM; under setting [3], 2210 nM.
The like results for `Cc1cccc2c1-c1ccccc1C2(O)C(F)(F)F` (stereo not shown) [compound 2] were, in that order, above 1000 nM and 2290 nM.
The like results for `Cc1ccc2c(c1)C(O)(C(F)(F)F)c1ccccc1-2` (stereo not shown) [compound 3] were, in that order, above 1000 nM and 1570 nM.
For the compound `OC1(C(F)(F)F)c2ccccc2-c2ccc(F)cc21` (stereo not shown) [compound 4], the IC50 runs as follows: under setting [2], above 1000 nM; under setting [3], 2290 nM.
The like results for `OC1(C(F)(F)F)c2ccccc2-c2ccc(Cl)cc21` (stereo not shown) [compound 5] were, in that order, above 1000 nM and 1170 nM.
The like results for `OC1(C(F)(F)F)c2ccccc2-c2c(Cl)cccc21` (stereo not shown) [compound 6] were, in that order, above 1000 nM and 2290 nM.
The like results for `OC1(C(F)(F)F)c2ccccc2-c2ccc(Br)cc21` (stereo not shown) [compound 7] were, in that order, above 1000 nM and 1440 nM.
`OC1(C(F)(F)F)c2ccccc2-c2cccc(Cl)c21` (stereo not shown) [compound 8]: the IC50 under setting [2] is above 1000 nM and the IC50 under setting [3] was 45600 nM.
Turning to `OC1(C(F)(F)F)c2ccccc2-c2cc(Cl)ccc21` (stereo not shown) [compound 9], the IC50 is above 1000 nM under setting [2] and 20000 nM under setting [3].
For `Cc1ccc2c(c1)-c1ccccc1C2(O)C(F)(F)F` (stereo not shown) [compound 10], in that order: above 1000 nM and 30800 nM.
The like results for `OC1(C(F)(F)F)c2ccccc2-c2c(F)cccc21` (stereo not shown) [compound 11] were, in that order, above 1000 nM and 6790 nM.
The like results for `OC1(C(F)(F)F)c2ccccc2-c2cc(F)ccc21` (stereo not shown) [compound 12] were, in that order, above 1000 nM and 5500 nM.
For the compound `OC1(C(F)(F)F)c2ccccc2-c2cccc(F)c21` (stereo not shown) [compound 13], the IC50 is above 1000 nM under setting [2] and 15900 nM under setting [3].
With `OC1(C(F)(F)F)c2cc(Cl)ccc2-c2ccc(Cl)cc21` [compound 14], the IC50 was above 1000 nM under setting [2] and 56600 nM under setting [3].
The like results for `Cc1cccc2c1-c1ncccc1C2(O)C(F)(F)F` (stereo not shown) [compound 15] were, in that order, above 1000 nM and 16300 nM.
For `Cc1ccc2c(c1)C(O)(C(F)(F)F)c1cccnc1-2` (stereo not shown) [compound 16], in that order: above 1000 nM and 19300 nM.
The like results for `Cc1ccc2c(c1)C(O)(C(F)(F)F)c1cccc(C)c1-2` (stereo not shown) [compound 17] were, in that order, above 1000 nM and 13900 nM.
Turning to `Cc1cc(C)c2c(c1)C(O)(C(F)(F)F)c1ccccc1-2` (stereo not shown) [compound 18], the IC50 runs as follows: under setting [2], 100 to 1000 nM; under setting [3], 457 nM.
For `CC(=O)Nc1cccc2c1-c1ccccc1C2(O)C(F)(F)F` (stereo not shown) [compound 19], in that order: above 1000 nM and above 100000 nM.
The like results for `Nc1cccc2c1-c1ccccc1C2(O)C(F)(F)F` (stereo not shown) [compound 20] were, in that order, above 1000 nM and 3500 nM.
For `OC1(C(F)(F)F)c2ccccc2-c2c(Cl)cc(Cl)cc21` (stereo not shown) [compound 21], in that order: 100 to 1000 nM and 302 nM.
For `CC(=O)Nc1ccc2c(c1)C(O)(C(F)(F)F)c1ccccc1-2` (stereo not shown) [compound 22], the half-maximal inhibitory concentration (IC50) by setting is: under setting [2], above 1000 nM; under setting [3], 16700 nM.
The like results for `COC(=O)c1ccc2c(c1)C(O)(C(F)(F)F)c1ccccc1-2` (stereo not shown) [compound 23] were, in that order, 100 to 1000 nM and 571 nM.
For `O=C(O)c1ccc2c(c1)C(O)(C(F)(F)F)c1ccccc1-2` (stereo not shown) [compound 24], in that order: above 1000 nM and above 100000 nM.
For `CCc1cccc2c1-c1ccccc1C2(O)C(F)(F)F` (stereo not shown) [compound 25], in that order: above 1000 nM and 30900 nM.
For `Nc1ccc2c(c1)-c1ccccc1C2(O)C(F)(F)F` (stereo not shown) [compound 26], the IC50 runs as follows: under setting [2], above 1000 nM; under setting [3], 17600 nM.
For `COC(=O)c1cccc2c1-c1ccccc1C2(O)C(F)(F)F` (stereo not shown) [compound 27], in that order: 100 to 1000 nM and 848 nM.
For `CC(=O)Nc1ccc2c(c1)-c1ccccc1C2(O)C(F)(F)F` (stereo not shown) [compound 28], in that order: above 1000 nM and 2820 nM.
The like results for `NC(=O)c1ccc2c(c1)C(O)(C(F)(F)F)c1ccccc1-2` (stereo not shown) [compound 29] were, in that order, above 1000 nM and 5740 nM.
On to `CNC(=O)c1ccc2c(c1)C(O)(C(F)(F)F)c1ccccc1-2` (stereo not shown) [compound 30], for which the half-maximal inhibitory concentration (IC50) by setting is: under setting [2], above 1000 nM; under setting [3], 8610 nM.
As for `CN(C)C(=O)c1ccc2c(c1)C(O)(C(F)(F)F)c1ccccc1-2` (stereo not shown) [compound 31], the 50% inhibitory concentration (IC50) under setting [2] was above 1000 nM and the IC50 under setting [3] came out at 1350 nM.
For `O=C(O)c1cccc2c1-c1ccccc1C2(O)C(F)(F)F` (stereo not shown) [compound 32], in that order: above 1000 nM and above 100000 nM.
The like results for `NC(=O)c1cccc2c1-c1ccccc1C2(O)C(F)(F)F` (stereo not shown) [compound 33] were, in that order, above 1000 nM and 1810 nM.
`CNC(=O)c1cccc2c1-c1ccccc1C2(O)C(F)(F)F` (stereo not shown) [compound 34]: the IC50 is above 1000 nM under setting [2] and 33200 nM under setting [3].
For `CN(C)C(=O)c1cccc2c1-c1ccccc1C2(O)C(F)(F)F` (stereo not shown) [compound 35], in that order: above 1000 nM and above 100000 nM.
For `OC1(C(F)(F)F)c2ccccc2-c2ncc(Cl)cc21` (stereo not shown) [compound 36], in that order: 100 to 1000 nM and 626 nM.
